One data set is described as follows: in vitro. It is filed as in vitro ADME. The following applies: bovine; fraction unbound in OCI-Ly1 DC50 assay medium; read-out: fu,media.
Data set [1] is described as follows: logD7.4 assay (Chrom log D method). The format is physicochemical. The following applies: reversed-phase HPLC on Phenomenex Luna C8 column, pH 7.4, read-out: Measured logD7.4. The method in brief:
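Samples at 1mM in 10% DMSO/90% Trizma buffer (100mM Trizma in 75/25 methanol/water) injected onto a C8 column at 30°C under gradient elution at 2 mL/min. Retention calibrated against calibration and validation standards.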

The target in another data set is T1, HTR2B (Homo sapiens, UniProt P41595).
T1 construct: expressed in transfected cells
T1 sequence (P41595 whole entry): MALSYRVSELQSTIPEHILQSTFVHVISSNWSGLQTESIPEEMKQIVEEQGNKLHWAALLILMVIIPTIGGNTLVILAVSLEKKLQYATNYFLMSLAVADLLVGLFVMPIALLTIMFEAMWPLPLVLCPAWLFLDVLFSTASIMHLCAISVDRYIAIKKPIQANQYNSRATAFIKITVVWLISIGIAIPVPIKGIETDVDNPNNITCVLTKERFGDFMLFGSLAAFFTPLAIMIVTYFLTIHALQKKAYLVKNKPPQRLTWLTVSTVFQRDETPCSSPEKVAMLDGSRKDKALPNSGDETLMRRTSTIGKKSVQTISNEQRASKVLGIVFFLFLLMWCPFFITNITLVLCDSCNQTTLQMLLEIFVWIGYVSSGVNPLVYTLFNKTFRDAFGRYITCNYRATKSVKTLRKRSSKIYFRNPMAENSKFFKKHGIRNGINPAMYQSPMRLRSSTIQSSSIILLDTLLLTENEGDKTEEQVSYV
Nature of the data set: SAFETYScan GPCR Calcium Flux, Antagonist. The format is cell-based. From the text: (§1) Supplement jm1c02175_si_002.xlsx, sheet "SAFETYScan" | column: RC50 (uM); Max Response
On the technique in general: A change in cytosolic calcium serves as a functional read-out for many receptors and channels.

A further data set concerns the target T2, EDNRA (Homo sapiens, UniProt P25101).
T2 sequence (P25101 21-427): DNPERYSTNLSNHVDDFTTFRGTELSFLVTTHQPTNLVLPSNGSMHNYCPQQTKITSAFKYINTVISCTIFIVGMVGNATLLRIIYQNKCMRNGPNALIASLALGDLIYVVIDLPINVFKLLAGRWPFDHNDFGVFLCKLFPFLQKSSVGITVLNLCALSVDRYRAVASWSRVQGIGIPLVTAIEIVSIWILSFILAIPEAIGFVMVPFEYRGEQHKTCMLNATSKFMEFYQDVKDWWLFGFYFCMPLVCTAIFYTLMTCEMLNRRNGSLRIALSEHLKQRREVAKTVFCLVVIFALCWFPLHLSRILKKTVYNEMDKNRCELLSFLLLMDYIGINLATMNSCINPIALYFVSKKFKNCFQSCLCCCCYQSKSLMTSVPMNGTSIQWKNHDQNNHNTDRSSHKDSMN
Kind of data set: SAFETYScan GPCR Calcium Flux, Antagonist. It is filed as cell-based.
Description: as §1

The target in a further data set is T3, CHRM1 (Homo sapiens, UniProt P11229).
T3 sequence (P11229 1-460): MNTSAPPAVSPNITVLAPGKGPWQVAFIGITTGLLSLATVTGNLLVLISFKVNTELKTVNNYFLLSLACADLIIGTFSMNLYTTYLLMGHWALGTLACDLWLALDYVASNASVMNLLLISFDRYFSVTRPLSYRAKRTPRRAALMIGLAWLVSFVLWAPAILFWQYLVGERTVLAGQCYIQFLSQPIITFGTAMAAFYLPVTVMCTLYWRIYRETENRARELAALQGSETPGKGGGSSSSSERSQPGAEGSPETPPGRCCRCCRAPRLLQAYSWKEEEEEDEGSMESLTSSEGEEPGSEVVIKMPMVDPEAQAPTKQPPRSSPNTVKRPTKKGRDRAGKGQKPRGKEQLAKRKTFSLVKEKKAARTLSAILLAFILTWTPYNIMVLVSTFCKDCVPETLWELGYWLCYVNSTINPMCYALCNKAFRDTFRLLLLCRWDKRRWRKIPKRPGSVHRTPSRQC
Nature of the data set: SAFETYScan GPCR Calcium Flux, Antagonist. It is filed as cell-based.
Description: as §1

Bounds are passed on as bounds.

Broadly, the IC50 is the concentration at which inhibition is half-maximal. Take `C[C@H]1C[C@@H](O)CN(c2ncc(Cl)c(Nc3ccc4c(c3)c3c(c(=O)n4C)OCC(F)(F)[C@H](C4CC4)N3)n2)C1` [12a CCT373566, (S)-10-((5-Chloro-2-((3R,5S)-3-hydroxy-5-methylpiperidin-1-yl)pyrimidin-4-yl)amino)-2-cyclopropyl-3,3-difluoro-7-methyl-1,2,3,4-tetrahydro-[1,4]oxazepino[2,3-c]quinolin-6(7H)-one]: the fraction unbound in the data set “in vitro” stood at 0.13. Besides, the chromatographic logD in data set [1] came to 3. Further, the values for the Emax on HTR2B (read-out: Max Response), on EDNRA (read-out: Max Response) and on CHRM1 (read-out: Max Response) were 24.2%, 0% and 3.44%, respectively. Further, the IC50 at HTR2B (read-out: RC50 (IC50)), at EDNRA (read-out: RC50 (IC50)) and at CHRM1 (read-out: RC50 (IC50)) was above 10 µM throughout.

Values taken from article PMC9234961 (Journal of Medicinal Chemistry, 2022).
